In ChEMBL document CHEMBL1201862, “PubChem BioAssay data set” (2004):
Active and inactive are the calls of the source.

Legend:
[1] = target: T1, RNA-binding protein pos-1 (Caenorhabditis elegans, UniProt G5EF15); assay: inhibitors of POS-1/mex-3 RNA binding, dose response, biochemical, fluorescence polarization (AID 1964);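 also: purified POS-1 fused to maltose binding protein made in E. coli; potency of compounds blocking POS-1 binding to fluorescent RNA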
T1 sequence (G5EF15 whole entry): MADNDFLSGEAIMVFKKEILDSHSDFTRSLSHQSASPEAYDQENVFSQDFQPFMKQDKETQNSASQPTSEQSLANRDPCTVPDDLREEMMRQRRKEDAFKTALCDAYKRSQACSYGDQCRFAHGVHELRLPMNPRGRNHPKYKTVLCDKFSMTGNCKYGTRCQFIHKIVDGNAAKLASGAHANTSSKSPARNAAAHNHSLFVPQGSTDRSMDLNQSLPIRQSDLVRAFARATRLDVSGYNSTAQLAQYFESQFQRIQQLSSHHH

[2] = target: T2, Endoribonuclease toxin MazF (Escherichia coli K-12, UniProt P0AE70); assay: fluorescent RNA oligo signal without MazF, dose response, counter-screen for MazEF activator project, biochemical, fluorescence, single-stranded RNase substrate (AID 588502); type: functional
T2 sequence (P0AE70 whole entry): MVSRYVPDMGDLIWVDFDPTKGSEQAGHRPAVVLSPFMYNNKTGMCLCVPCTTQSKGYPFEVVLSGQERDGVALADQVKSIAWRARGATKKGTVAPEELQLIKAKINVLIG

[3] = target: T2, Endoribonuclease toxin MazF; assay: MazF toxin RNase activators, dose response, biochemical, fluorescence, single-stranded RNA substrate, uHTS hits (AID 588481); type: functional
[4] = target: T3, Zinc finger protein mex-5 (Caenorhabditis elegans, UniProt Q9XUB2); assay: MEX-5/TCR-2 RNA interaction inhibitors, dose response, biochemical, C. elegans, fluorescence polarization (AID 1960)
T3 sequence (Q9XUB2 whole entry): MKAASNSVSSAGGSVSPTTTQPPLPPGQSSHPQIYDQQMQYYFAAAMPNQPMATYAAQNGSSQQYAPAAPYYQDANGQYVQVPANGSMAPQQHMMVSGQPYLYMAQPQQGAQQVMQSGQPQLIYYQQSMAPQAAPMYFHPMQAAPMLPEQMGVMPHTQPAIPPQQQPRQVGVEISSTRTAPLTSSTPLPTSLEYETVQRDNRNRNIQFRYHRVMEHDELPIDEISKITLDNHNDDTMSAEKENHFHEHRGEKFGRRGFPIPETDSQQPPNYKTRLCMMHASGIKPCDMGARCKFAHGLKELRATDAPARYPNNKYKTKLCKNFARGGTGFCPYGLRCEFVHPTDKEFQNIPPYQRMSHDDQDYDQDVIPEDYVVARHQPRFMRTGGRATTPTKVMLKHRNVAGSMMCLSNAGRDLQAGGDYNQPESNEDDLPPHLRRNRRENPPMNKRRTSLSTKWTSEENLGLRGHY

[5] = target: T4, Bcl-2-related protein A1 (Mus musculus, UniProt Q07440); type: functional;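 also: confirmatory dose–response counterscreen on Bfl-1, used to check hits from a UBC13 polyubiquitin inhibitor campaign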
T4 sequence (Q07440 whole entry): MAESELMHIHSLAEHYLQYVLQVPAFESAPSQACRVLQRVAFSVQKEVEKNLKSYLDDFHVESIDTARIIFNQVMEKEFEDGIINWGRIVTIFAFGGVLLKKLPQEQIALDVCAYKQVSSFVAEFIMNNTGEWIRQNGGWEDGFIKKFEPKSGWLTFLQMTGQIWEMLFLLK

[6] = target: T5, Ubiquitin-conjugating enzyme E2 N (Homo sapiens, UniProt P61088); type: functional
T5 sequence (P61088 whole entry): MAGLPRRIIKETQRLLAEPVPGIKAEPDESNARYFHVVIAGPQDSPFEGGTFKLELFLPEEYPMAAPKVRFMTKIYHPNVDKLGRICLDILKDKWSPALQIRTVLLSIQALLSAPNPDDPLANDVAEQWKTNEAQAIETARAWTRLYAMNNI

[7] = target: T5, Ubiquitin-conjugating enzyme E2 N; type: functional; remark: listed apart in the source
[8] = target: Dual specificity tyrosine-phosphorylation-regulated kinase 1A (Rattus norvegicus, UniProt Q63470); type: biochemical, Homo sapiens
[9] = target: T6, Heat shock factor protein 1 (Mus musculus, UniProt P38532); assay: HSF1 potentiators in luciferase reporter cells, confirmation, cell-based, NIH3T3, luminescence, dose retest (AID 435004); type: functional;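 also: stress induced by proteasome inhibitor MG132 added 30 min after compound; luciferase reporter driven by HSF1 response element in NIH3T3 cells; actives raise luminescence as potentiators of the MG132 stress response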
T6 sequence (P38532 whole entry): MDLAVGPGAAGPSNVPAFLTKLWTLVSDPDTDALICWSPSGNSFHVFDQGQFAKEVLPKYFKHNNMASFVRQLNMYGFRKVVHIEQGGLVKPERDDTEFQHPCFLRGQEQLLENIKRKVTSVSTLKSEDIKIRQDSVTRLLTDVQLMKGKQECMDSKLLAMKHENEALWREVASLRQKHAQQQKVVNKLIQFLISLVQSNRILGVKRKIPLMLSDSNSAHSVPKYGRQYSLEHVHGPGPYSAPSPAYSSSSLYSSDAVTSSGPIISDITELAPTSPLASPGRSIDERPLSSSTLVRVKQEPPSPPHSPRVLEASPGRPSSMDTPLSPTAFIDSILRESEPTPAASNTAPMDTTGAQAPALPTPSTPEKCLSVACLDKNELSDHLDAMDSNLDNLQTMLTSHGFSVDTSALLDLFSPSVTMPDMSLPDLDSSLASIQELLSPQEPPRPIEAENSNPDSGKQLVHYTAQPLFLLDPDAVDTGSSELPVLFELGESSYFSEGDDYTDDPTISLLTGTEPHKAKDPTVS

[10] = target: Troponin, cardiac muscle (Homo sapiens, UniProt P19429+P45379+P63316); assay: Fluorescence-based biochemical high throughput dose response assay for activators of the calcium sensitivity of cardiac Regulated Thin Filaments (RTF). [Related pubchem assays (depositor defined):AID493008, AID493018, AID504382, AID504383]; type: protein-complex assay
[11] = target: T7, Carboxy-terminal domain RNA polymerase II polypeptide A small phosphatase 1 (Homo sapiens, UniProt Q9GZU7); assay: inhibitors of CTDSP1, concentration-response testing, biochemical assay, absorbance-based, actives from ultra-high-throughput screening (AID 540297); type: functional
T7 sequence (Q9GZU7 whole entry): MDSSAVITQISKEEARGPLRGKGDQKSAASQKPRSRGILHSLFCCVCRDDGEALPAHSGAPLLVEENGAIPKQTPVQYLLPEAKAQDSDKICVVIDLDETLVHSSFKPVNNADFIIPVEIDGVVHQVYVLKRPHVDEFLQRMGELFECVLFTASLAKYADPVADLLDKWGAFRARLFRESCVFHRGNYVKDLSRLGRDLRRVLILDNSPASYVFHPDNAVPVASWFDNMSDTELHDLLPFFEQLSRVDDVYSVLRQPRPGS

[12] = target: DNA dC->dU-editing enzyme APOBEC-3A (Homo sapiens, UniProt P31941); assay: Dose Response confirmation of small molecule APOBEC3A DNA Deaminase Inhibitors via a fluorescence-based single-stranded DNA deaminase assay. [Related pubchem assays (depositor defined):AID493011, AID493024]; type: functional
[13] = target: DNA dC->dU-editing enzyme APOBEC-3G (Homo sapiens, UniProt Q9HC16); type: functional;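 also: Dose-response counterscreen measuring inhibition of APOBEC3G DNA deaminase activity, run while confirming APOBEC3A inhibitors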
[14] = inhibitors of Vif binding to APOBEC3G peptide, primary screen, biochemical, TR-FRET, GST-Vif 1-94, biotin-A3G peptide, dose response retest (AID 1117319); type: functional;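 also: TR-FRET signal of purified GST-Vif binding a biotinylated A3G peptide; inhibitors lower the FRET signal by blocking Vif and A3G binding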
[15] = tested on: Vero; assay: Vero cell cytotoxicity, cytotoxicity control for flavivirus capping enzyme inhibitors (AID 588742); type: functional; settings: Chlorocebus sabaeus
[16] = cytotoxicity toward NIH3T3 fibroblasts, dose response, counter-screen, cell-based, ATP luminescence, mouse fibroblasts (AID 2010); type: functional;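 also: cells exposed to compound for about 90 hours before reading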
[17] = NIH-3T3 fibroblast cytotoxicity, dose response, cytotoxicity control, cell-based, fluorescence, Alamar Blue, secondary assay (AID 2327); type: functional;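 also: NIH-3T3 mouse fibroblasts cultured with fluconazole at 8 µg/mL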
[18] = tested on: HEK293; assay: inhibitors of LMP1-driven NF-kB reporter, dose response, cell-based, HEK293, luciferase, cherry-pick (AID 588343); type: functional; settings: Homo sapiens
[19] = tested on: INS1; assay: beta cell apoptosis inhibitors, cytokine rescue, dose response, luminescence, retest (AID 449756); type: functional, cell-based; settings: Rattus norvegicus;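 also: cell death triggered by IL-1 beta plus TNF-alpha plus IFN-gamma mixture; protective hits raise ATP signal compared with cytokine alone wells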
[20] = tested on: H4; assay: Luminescence Cell-Based Dose Response HTS to Identify Activators of 5'UTR Stem-Loop Driven Prion Protein mRNA Translation in H4 Neuroglioblastoma Cells. [Related pubchem assays: 1829 (Project Summary), 1814 (Primary HTS)]; type: functional; settings: Homo sapiens
[21] = control 3'UTR Renilla luciferase suppression, dose response, counter-screen for Shn3 inhibitor project, cell-based, Clone20-Shn3RL, cherry-picked (AID 624133); type: functional
[22] = C. albicans growth with fluconazole, confirmation, fluorescence, retest (AID 2467); type: functional, cell-based
[23] = inhibitors of intracellular T. cruzi replication, confirmation, NIH3T3 host cells, beta-gal luminescence (AID 2044); type: functional, cell-based;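 also: intracellular parasites grown in NIH/3T3 mouse fibroblasts as host cells; luminescent beta-galactosidase reporter signal from transgenic T. cruzi replicating inside host cells; inhibitors lower the luminescence signal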
[24] = Shn3 3'UTR reporter inhibitors, dose response, cell-based, Clone20 osteoblasts, firefly luciferase, cherry-picked (AID 624132); type: functional;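 also: firefly luciferase luminescence from reporter carrying the Shn3 3'UTR in osteoblasts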
[25] = HepG2 cell cytotoxicity, dose response, cytotoxicity control for Shn3 inhibitor project, CellTiter-Glo, cherry-picked (AID 624134); type: functional, cell-based
[26] = Luminescence Cell-Based Dose Response HTS to Identify Activators of Luciferase Translation or Activity in H4 […] Cells. [Related pubchem assays: 1829 (Project Summary), 1814 (Primary HTS)]; type: functional
[27] = Luminescence Cell-Based Dose Confirmation HTS to Identify Activators of 5'UTR Stem-Loop Driven Alpha-Synuclein mRNA Translation in H4 Neuroglioblastoma Cells. [Related pubchem assays: 1829 (Project Summary), 1814 (Primary HTS)]; type: functional

Chain of DNA dC->dU-editing enzyme APOBEC-3G (Q9HC16 whole entry): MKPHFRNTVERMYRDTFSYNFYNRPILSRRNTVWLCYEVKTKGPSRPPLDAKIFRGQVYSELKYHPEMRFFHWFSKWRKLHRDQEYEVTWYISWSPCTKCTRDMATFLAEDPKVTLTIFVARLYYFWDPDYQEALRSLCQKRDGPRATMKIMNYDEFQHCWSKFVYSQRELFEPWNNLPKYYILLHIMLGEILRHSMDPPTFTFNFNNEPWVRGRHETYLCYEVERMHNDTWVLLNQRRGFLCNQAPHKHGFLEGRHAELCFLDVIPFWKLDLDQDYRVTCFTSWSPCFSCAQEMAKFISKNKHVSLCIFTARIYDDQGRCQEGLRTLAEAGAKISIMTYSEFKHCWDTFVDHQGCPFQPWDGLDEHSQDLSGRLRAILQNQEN
Chain of DNA dC->dU-editing enzyme APOBEC-3A (P31941 whole entry): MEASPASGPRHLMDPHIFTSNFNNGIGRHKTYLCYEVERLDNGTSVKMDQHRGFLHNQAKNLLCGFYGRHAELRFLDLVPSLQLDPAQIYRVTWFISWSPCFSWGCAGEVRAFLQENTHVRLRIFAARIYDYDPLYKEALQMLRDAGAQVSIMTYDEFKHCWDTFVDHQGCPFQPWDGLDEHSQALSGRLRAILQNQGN

CCCCN1C(=O)NC(=O)/C(=C/c2c[nH]c3ccccc23)C1=O
EC50 [1]: 28.4 µM (inconclusive) | EC50 [2]: > 99 µM (inactive) | EC50 [3]: > 99 µM (inactive) | EC50 [4]: 29.9 µM (active)

O=C(CSCc1ccc([N+](=O)[O-])cc1)N[N-][C+]1CCCCCC1
IC50 [5]: > 20 µM (inactive) | IC50 [6]: 5.71 µM (active) | IC50 [7]: 13.7 µM (active)

O=C1NC(=S)S/C1=C/c1ccc(OC(=O)c2ccco2)cc1
AC50 [8]: 4.1 µM (active) | EC50 [2]: 16.4 µM (active) | EC50 [3]: > 99 µM (inactive) | EC50 [9]: > 260 µM (inactive)

CCc1nc(Nc2cccc(O)c2)c2oc3ccccc3c2n1
AC50 [8]: 9.77 µM (active)

CC(=O)C(=CNc1noc(C)c1Br)C(C)=O
EC50 [10]: > 71.6 µM (inactive)

COc1ccc2c(c1)c(=O)oc1c(C)c(OCc3cc(C(=O)O)oc3C)ccc12
AC50 [8]: 1.51 µM (active) | IC50 [11]: 9.08 µM (active)

CNc1ccccc1C(C)(C)c1cc(C)[nH]n1
EC50 [10]: > 71.5 µM (inactive)

COc1ccc(S(=O)(=O)N(CCc2ccccc2)CC(=O)NC(C)C)cc1
IC50 [12]: 6.35 µM (active) | IC50 [13]: 5.95 µM (active) | IC50 [14]: > 100 µM (active)

O=C(NCc1ccco1)c1cc(-c2cccs2)nc2ccccc12
CC50 [15]: > 40 µM (active)

CCn1c(/C=C/c2ccc([N+](=O)[O-])o2)nc2ccccc2c1=O
EC50 [16]: 3.14 µM (active) | EC50 [17]: 7.6 µM (inconclusive) | AC50 [18]: 10.8 µM (active) | EC50 [1]: 5.46 µM (inconclusive) | AC50 [19]: 3.43 µM (active) | EC50 [20]: > 120 µM (not active) | EC50 [2]: > 99 µM (inactive) | AC50 [21]: 8.48 µM (active) | EC50 [22]: 0.682 µM (active) | EC50 [23]: 0.213 µM (active) | EC50 [3]: > 99 µM (inactive) | AC50 [24]: 4.51 µM (active) | AC50 [25]: 13.6 µM (active) | EC50 [26]: > 60 µM (not active) | EC50 [4]: > 150 µM (inconclusive) | EC50 [27]: > 120 µM (not active)

NC(=O)NC(CC(=O)NNC(=O)c1ccccn1)c1ccc(Cl)cc1 (stereo not given)
IC50 [5]: > 20 µM (inactive) | IC50 [6]: 19.6 µM (active) | IC50 [7]: 12.4 µM (active)

Cc1cc(Cl)nc(N)n1
EC50 [10]: > 71.4 µM (inactive)

COc1cccc(/C=N\NC(=O)c2sc(N)nc2C)c1OC
IC50 [5]: > 20 µM (inactive) | IC50 [6]: 0.947 µM (active) | IC50 [7]: 0.965 µM (active)

COc1cc2c(cc1OC)-c1c(OC)c(OC)cc3c1[C@H](C2)[N+](C)(C)CC3 [GLAUCINE METHIODIDE]
IC50 [12]: 1.85 µM (active) | IC50 [13]: 1.66 µM (active)
